Laboratory results reported in PMC6292454 (Biochemical Journal, 2018).
Where two headings read alike, the source gives them in different places.

Legend:
[1] = target: T1, NA2009wt (recombinant neuraminidase) (Influenza A virus, UniProt C3W6G3); assay: biochemical; type: biochemical, A/California/07/2009 (H1N1) influenza virus; conditions: for Ki values, fluorometric assay, as described in the text / decrease in potency relative to oseltamivir carboxylate (4): pH 6.15; for Ki values, fluorometric assay, as described in the text: units given in the value; for decrease in potency relative to oseltamivir carboxylate (4): fluorometric assay
[2] = target: T1, NA2009wt (recombinant neuraminidase); assay: biochemical; type: binding, A/California/07/2009 (H1N1) influenza virus

| Structure (SMILES) | Ki [1] | Ki [2] | Ki values, fluorometric assay, as described in the text [1] | decrease in potency relative to oseltamivir carboxylate (4) [1] |
| --- | --- | --- | --- | --- |
| CCC(CC)O[C@@H]1C=C(P(=O)(O)O)C[C@H](N)[C@H]1NC(C)=O [compound 2, tamiphosphor, reference compound] | 0.026 ± 0.004 µM | 0.052 ± 0.009 µM |  |  |
| CCC(CC)O[C@@H]1C=C(C(=O)O)C[C@H](NC(=O)COCCOCCOC)[C@H]1NC(C)=O [compound 11] |  |  | micromolar range |  |
| CCC(CC)O[C@@H]1C=C(C(=O)O)C[C@H](N[C@@H](CC(=O)O)C(=O)O)[C@H]1NC(C)=O (mixture of isomers) [compound 10] |  |  | micromolar range |  |
| CCC(CC)O[C@@H]1C=C(C(=O)O)C[C@H](N[C@@H](C)C(=O)O)[C@H]1NC(C)=O [compound 8] | 0.015 ± 0.002 µM | 0.17 ± 0.06 µM |  | comparable to that of oseltamivir carboxylate |
| CCC(CC)O[C@@H]1C=C(C(=O)O)C[C@H](N[C@H](C)C(=O)O)[C@H]1NC(C)=O [compound 9] | 0.25 ± 0.04 µM | 0.96 ± 0.26 µM |  | ~10 fold |
